The target of assay [1] is Glutamate NMDA receptor (Rattus norvegicus) (UniProt P35439+Q00959+Q00960+Q00961+Q62645+Q8VHN2+Q9R1M7). In words: Antagonist activity at NMDA receptor in rat cortex assessed as inhibition of NMDA-induced depolarization. The assay is classed as functional, tissue-based.
In assay [2] the target is Glutamate NMDA receptor. In words: Displacement of [3H]L689560 from glycine site of rat NMDA receptor. The class given is protein-complex assay.
Assay [3] in a line: Inhibition of Escherichia coli H560 DNA gyrase.
For assay [4], the target named is Beta-secretase 1 (Homo sapiens, UniProt P56817). In words: Inhibition of BACE1 by FRET assay.
A short description of assay [5]: Inhibition of HCV NS5B polymerase. Details: species or system Hepacivirus hominis.
In assay [6] the test system is P388. In words: Growth inhibition of mouse P388 cells by MTT assay after 24 hrs. The assay is classed as functional, cell-based. The note with it: P388, 24 h.
Assay [7] concerns Bel-7402. In words: Growth inhibition of human Bel7402 cells by MTT assay after 24 hrs. The class given is functional, cell-based. Conditions: Bel-7402, 24 h.
Assay [8] has as its system A549. In words: Growth inhibition of human A549 cells by MTT assay after 24 hrs. The class given is functional, cell-based. The note with it: A549, 24 h.
The test system of assay [9] is HL-60. In words: Growth inhibition of human HL60 cells by MTT assay after 24 hrs. The class given is functional, cell-based. Conditions: HL-60, 24 h.
Assay [10] concerns B16. In words: Cytotoxicity against mouse B16 cells. The class given is functional, cell-based.
In assay [11] the test system is Bacteroides fragilis. In words: Antimicrobial activity against Bacteroides fragilis. The assay is classed as functional.
For assay [12], the system named is Fusobacterium nucleatum. In words: Antimicrobial activity against Fusobacterium nucleatum. The assay is classed as functional.
The subject of assay [13] is Phocaeicola vulgatus. In words: Antimicrobial activity against Bacteroides vulgatus. The class given is functional.
In assay [14] the test system is Streptococcus constellatus. In words: Antimicrobial activity against Streptococcus constellatus. The assay is classed as functional.
For assay [15], the system named is Clostridioides difficile. In words: Antimicrobial activity against Clostridium difficile. The assay is classed as functional.
Assay [16] deals with Eubacterium limosum. In words: Antimicrobial activity against Eubacterium limosum. The assay is classed as functional.
Assay [17] relates to Bifidobacterium longum. In words: Antimicrobial activity against Bifidobacterium longum. The assay is classed as functional.
Assay [18] deals with Bacteroides sp. In words: Antimicrobial activity against Bacteroides melaninogenicus. The assay is classed as functional.
For assay [19], the system named is Fusobacterium necrophorum. In words: Antimicrobial activity against Fusobacterium necrophorum. The class given is functional.
In assay [20] the test system is L929. In words: Growth inhibition of mouse L929 cells. The assay is classed as cell-based.
Assay [21] relates to HeLa. In words: Growth inhibition of human HeLa cells. The assay is classed as functional, cell-based.
Assay [22] can be described thus: Growth inhibition of human KB3-1 cells. The note with it: KB 3-1. The assay is classed as functional, cell-based.
Assay [23] has as its system A498. In words: Growth inhibition of human A498 cells. The class given is functional, cell-based.
Assay [24] has as its system XF498. In words: Cytotoxicity against human XF498 cells. The assay is classed as functional, cell-based.
For assay [25], the system named is HCT-15. In words: Cytotoxicity against human HCT15 cells. The class given is functional, cell-based.
Assay [26] concerns SK-OV-3. In words: Cytotoxicity against human SK-OV-3 cells. The assay is classed as functional, cell-based.
The subject of assay [27] is SK-MEL-2. In words: Cytotoxicity against human SK-Mel-2 cells. The assay is classed as functional, cell-based.
For assay [28], the system named is A549. In words: Cytotoxicity against human A549 cells. The class given is functional, cell-based.

The values that follow come from ChEMBL document CHEMBL1149878, “Tetramic and tetronic acids: an update on new derivatives and biological aspects” (Bioorg Med Chem, 2008).

Values after ≈ are worked out from the molar mass of the structure shown. Bounds are passed on as bounds.

Sequence of Beta-secretase 1 (P56817 whole entry): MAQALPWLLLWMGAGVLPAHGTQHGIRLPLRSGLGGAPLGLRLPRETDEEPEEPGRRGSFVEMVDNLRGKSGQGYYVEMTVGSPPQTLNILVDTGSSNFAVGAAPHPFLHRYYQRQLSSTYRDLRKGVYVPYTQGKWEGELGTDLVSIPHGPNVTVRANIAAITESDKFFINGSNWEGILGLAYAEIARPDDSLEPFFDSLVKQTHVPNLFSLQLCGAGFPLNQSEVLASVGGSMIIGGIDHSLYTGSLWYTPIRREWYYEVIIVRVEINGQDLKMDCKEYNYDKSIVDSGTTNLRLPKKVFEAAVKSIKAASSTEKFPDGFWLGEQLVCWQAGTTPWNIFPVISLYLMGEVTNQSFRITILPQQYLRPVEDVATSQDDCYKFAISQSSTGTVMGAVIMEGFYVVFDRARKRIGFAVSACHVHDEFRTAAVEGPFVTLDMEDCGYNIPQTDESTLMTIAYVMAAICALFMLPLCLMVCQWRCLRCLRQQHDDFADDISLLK

Take `CC/C=C1\NC(=O)C(c2cccc(Oc3ccccc3)c2)=C1O`: the Kb in assay [1] turned out to be 6.15 µM. For the same compound, in assay [2], the IC50 is 0.7 µM.

`CC(/C=C/C(O)=C1\C(=O)CNC1=O)=C\c1ccc2ccccc2c1`: the IC50 in assay [3] is 3.5 µg/mL (≈ 11 µM).

For the compound `CCC(C)C1NC(=O)C(SCc2cccc(C(F)(F)F)c2)=C1O` (stereo not drawn), the IC50 in assay [4] was 60 µM.

In [5], `CC(C)(C)CN1C(=O)C(C2=NS(=O)(=O)c3ccccc3N2)=C(O)[C@@H]1C(C)(C)C` registered an IC50 of 0.0017 µM.

In [3], `CCn1cc(C(=O)O)c(=O)c2cc(F)c(N3CCNCC3)cc21` [NORFLOXACIN] displayed an IC50 of 1 µg/mL (≈ 3.13 µM).

Regarding `C/C=C1/C(=O)/C(=C(/O)C(C)CCCCCC)C(=O)N1C` (stereo not drawn) [PENICILLENOL B1], the IC50 in assay [6] is over 100 µM; in assay [7] it was over 100 µM; in [8] it was over 100 µM; in assay [9] it was 3.2 µM.

Turning to `C[C@H]1C=CC2C1C[C@H]1/C=C/CC/C(O)=C3/C(=O)N[C@H](C3=O)[C@@H](O)CCNC(=O)/C=C/C=C\C[C@H]21` (stereo partly drawn) [CYLINDRAMIDE], the IC50 in [10] stood at 0.8 µg/mL (≈ 1.71 µM).

Take `C=C1OC(=O)/C(=C(\O)CCCCCCCCC)C1=O` [AGGLOMERIN A]: the MIC in [11] is 3.13 µg/mL (≈ 11.8 µM); in assay [12], 6.25 µg/mL (≈ 23.5 µM); in assay [13], 3.13 µg/mL (≈ 11.8 µM); in assay [14], 3.13 µg/mL (≈ 11.8 µM); in assay [15], 3.13 µg/mL (≈ 11.8 µM); in [16], 6.25 µg/mL (≈ 23.5 µM). For the same compound, the MIC in assay [17], in [18] and in assay [19] was 6.25 µg/mL (≈ 23.5 µM) each time.

Take `C/C=C/CCCC(C)/C(O)=C1\C(=O)[C@H]([C@H](C)O)N(C)C1=O` (stereo partly drawn) [PENICILLENOL C1]: the IC50 in assay [6], in assay [7], in assay [8] and in assay [9] was over 100 µM in each case.

Take `C/C=C/CCCC(C)/C(O)=C1\C(=O)[C@@H]([C@@H](C)O)N(C)C1=O` (stereo partly drawn) [PENICILLENOL C2]: the IC50 in assay [6], in assay [7], in [8] and in [9] was over 100 µM throughout.

Regarding `CCCCCCCCC(C)CC/C(O)=C1\C(=O)[C@H](C)N(C)C1=O` (stereo partly drawn) [MELOPHLIN B], the IC50 in [20], in assay [21], in [22] and in assay [23] was under 10 µM throughout.

Consider `C=C1C=C(CCC/C(C)=C/C=C/[C@@H](C)CC/C=C(/C)CC2OC(=O)C(C)=C2O)C(=O)N1CCC(C)C` (stereo partly drawn) [(S)-SARCOTRINE A], for which the IC50 in assay [24], in [25], in assay [26], in assay [27] and in assay [28] was 3.4 µg/mL (≈ 6.86 µM) throughout.

Consider `CC(/C=C/C(=O)C1=C(O)CN(C)C1=O)=C\c1ccc2ccccc2c1`, for which, in [3], the half-maximal inhibitory concentration (IC50) was determined as 10.3 µg/mL (≈ 30.9 µM).

Regarding `CCCCCCC(C)/C(O)=C1\C(=O)[C@H]([C@H](C)O)N(C)C1=O` (stereo partly drawn) [PENICILLENOL A1], in assay [9], the midpoint of inhibition, the IC50, lay at 0.76 µM.

As for `CCC(C)CCCCCCCCCC/C(O)=C1\C(=O)C(C)N(C)C1=O` (stereo not drawn) [MELOPHLIN R], the IC50 in assay [20], in [21], in [22] and in [23] was under 10 µM in each case.
